Measured values: patent publication US20260092085A1, “SYNTHETIC TRIPLEX PEPTIDE NUCLEIC ACID-BASED INHIBITORS FOR CANCER THERAPY” (University of Connecticut, priority 2022, published 2026)

How the values were obtained:
miR-155 [1] = test: miR-155 gene expression in U2932 tumor samples after in vivo treatment; design: species or system NSG mice; conditions: U2932 xenograft, intra-tumoral
Method: FIGS. 22A-D show in vivo gene expression and protein level analysis. (22A) miR-155 gene expression levels in U2932 tumor samples after in vivo treatment with indicated PNAs. Data was normalized with average control U6 (n=4, data represented as mean±standard error mean). ***p<0.001 (22B) Gene expression level of downstream target genes of miR-155: MCL1 in U2932 tumor samples after treatment with total 3 mg kg-1 dose of Scr-γtcPNA-155, PNA-155, γPNA-155 and γtcPNA-155 and normalized with average control GAPDH (n=3, data represented as mean±SEM), unpaired two-tailed t-test was performed for analysis). *p<0.05, **p<0.01 (22C) Representative western blot of Mcl-1 protein and its quantification (n=3 technical replicate) in U2932 tumor samples treated with total 3 mg kg-1 dose of Scr-γtcPNA-155, PNA-155 and γtcPNA-155. Data is represented as mean±SEM and unpaired two-tailed t-test was performed for analysis. *p<0.05. The relative protein levels were determined from the band intensity using ImageJ software and normalized relative to loading control and treatment control. (22D) Gene expression level of tumor suppressor proteins (FOXO3A, CUX1, SOCS1, CSF1R, JARID2, SHIP1, PICALM, PDCD4, BACH1, CASP3) in U2932 tumor samples after treatment with total 3 mg kg-1 dose of Scr-γtcPNA-155, PNA-155, γPNA-155 and γtcPNA-155 and normalized with average control GAPDH (n=3, data represented as mean±SEM, unpaired two-tailed t-test was performed for statistical analysis). *p<0.05, **p<0.01.
RNA and Protein extraction from tumor samples: The mice were injected intra-tumorally with 1 mg kg-1 dose of PNA-155, γtcPNA-155, γPNA-155, Scr-γtcPNA-155 or were untreated. The injections were repeated two additional times after 1 week each. The length, breadth, and depth of the tumors were measured daily using a vernier caliper. The mice were euthanized when the tumor volumes reached 2000 mm^3. The resected tumor sections were finely minced using a sterile blade and suspended in dissociation media (4 ml) comprising of RPMI-1640, 1.2 mg/ml dispase, and 0.5 mg/ml collagenase for 90 mins at 500 rpm at 37° C. The dissociated tumors were washed with buffer saline at 2500 rpm (4 mins) at 4° C. and then suspended in 0.25% trypsin for 4 mins at room temperature. RPMI 1640 media was added to the trypsinized tumor mass, and the cells were passed through a 70 um filter. The cells were centrifuged at 2500 rpm for 4 mins at 4° C. The cell pellet was then suspended in 1×RBC lysis buffer (Sigma) and incubated on ice for 10 mins. PBS was added to the cells and the cells were passed through a 40 um filter. The cells were centrifuged at 2500 rpm for 4 mins at 4° C. The cell pellet was resuspended in 0.5% BSA in PBS. […]

[2] = system: U2932 subcutaneous tumors; test: Tumor growth in U2932 derived xenograft model; type: in vivo, NSG mice; conditions: intra-tumoral injections days 0, 7, 14
Method: Mouse tumor xenograft: Female NSG mice (NOD.Cg-Prkdcscid Il2rgtm1Wjl/SzJ, strain 005557) weighing 20-23 g were procured from Jackson laboratories. 1×10^7 U2932 cells suspended in RPMI-1640 medium were injected subcutaneously in the right and left flank of 6-week-old NSG mice. The mice developed a small bump in 2 weeks. When the tumor volume reached 100-200 mm^3, the mice were randomly assigned to the treatment group (n=6 per group).
RNA and Protein extraction from tumor samples: The mice were injected intra-tumorally with 1 mg kg-1 dose of PNA-155, γtcPNA-155, γPNA-155, Scr-γtcPNA-155 or were untreated. The injections were repeated two additional times after 1 week each. The length, breadth, and depth of the tumors were measured daily using a vernier caliper. The mice were euthanized when the tumor volumes reached 2000 mm^3. The resected tumor sections were finely minced using a sterile blade and suspended in dissociation media (4 ml) comprising of RPMI-1640, 1.2 mg/ml dispase, and 0.5 mg/ml collagenase for 90 mins at 500 rpm at 37° C. The dissociated tumors were washed with buffer saline at 2500 rpm (4 mins) at 4° C. and then suspended in 0.25% trypsin for 4 mins at room temperature. RPMI 1640 media was added to the trypsinized tumor mass, and the cells were passed through a 70 um filter. The cells were centrifuged at 2500 rpm for 4 mins at 4° C. The cell pellet was then suspended in 1×RBC lysis buffer (Sigma) and incubated on ice for 10 mins. PBS was added to the cells and the cells were passed through a 40 um filter. The cells were centrifuged at 2500 rpm for 4 mins at 4° C. The cell pellet was resuspended in 0.5% BSA in PBS. The mouse cells were removed from the tumor cells using a mouse cell depletion kit (Miltenyi Biotec) according to the manufacturer's protocol. The enriched tumor cells from each tumor sample were divided into two fractions. RNA for gene expression analysis was extracted from one tumor fraction by the same procedure as mentioned earlier. The protein for western blot analysis was extracted from the second fraction using the method described above.
For the efficacy study, each mouse received three intra-tumoral injections of either γtcPNA-155, γPNA-155 or PNA-155 on days 0, 7, 14. We noticed that the control and scrambled treated tumors reached 2000 mm^3 much faster during our study, so we could not inject a third time in these mice. […] In contrast, as stated earlier, there was no effect on the control and scrambled PNA control on the tumor volume.

miR-155 [3] = test: miR-155 gene expression by RT-PCR in U2932 cells; type: cell-based, human; conditions: U2932, 500 nM, 48 hours, relative to scrambled control
Method: FIGS. 3A-F show cell culture-based functional assay in U2932 lymphoma cells. (3A) γtcPNA-155-TAMRA uptake in the U2932 lymphoma cell line: Representative flow cytometry traces of TAMRA fluorescence in U2932 cells after treatment with 500 nM dose of γtcPNA-155-TAMRA for 48 hours. The data was analyzed by FlowJo software. (3B) Normalized miR-155 gene expression levels in U2932 after treatment with phosphate buffer saline (PBS) as a control and with 500 nM dose of Scr-γtcPNA-155, PNA-155, γPNA-155 and γtcPNA-155 for 48 hours compared to average control U6 (n=3), data represented as mean±standard error mean (SEM), Statistical analysis was performed using Unpaired two-tailed t-test. Further, statistical analysis was performed relative to Scr-γtcPNA-155 treated cells. ***p<0.001. (3C) Gene expression level of miR-155 downstream genes, tumor suppressor proteins (FOXO3A, CUX1, SOCS1, CSF1R, JARID2, SHIP1, PICALM, PDCD4, BACH1, WEE1, TP53TG3, CASP3, PTEN) in U2932 cell line after treatment with PBS as a control and with after treatment with 500 nM of Scr-γtcPNA-155, PNA-155, γPNA-155 and γtcPNA-155 for 48 hours. Data is normalized with average GAPDH control (n=3), and represented as mean±SEM, *p<0.05. Unpaired two-tailed t-test was used for statistical analysis and analysis was performed relative to Scr-γtcPNA-155 treated cells. (3D) Gene expression level of miR-155 downstream genes MCL1 in U2932 cell line after treatment with PBS as a control and 500 nM of Scr-γtcPNA-155, PNA-155, γPNA-155 and γtcPNA-155 for 48 hours. Data is normalized with average GAPDH control (n=3), and represented as mean±SEM, *p<0.05, **p<0.01 and ***p<0.001. […] (3E) Representative western blot of Mcl-1 and its quantification (n=3 technical replicate) and (3F) Caspase-3 protein and its quantification (n=3 technical replicate) in U2932 cell line after treatment with 500 nM of Scr-γtcPNA-155, PNA-155 and γtcPNA-155 for 48 hours. […] Numbers above western blot panels represent relative quantification of the respective bands using ImageJ software and normalized relative to loading control and treatment control. […]

miR-155 downstream genes = test: Gene expression of miR-155 downstream genes by RT-PCR in U2932 cells; type: cell-based, human; conditions: U2932, 500 nM, 48 hours
Method: FIGS. 3A-F show cell culture-based functional assay in U2932 lymphoma cells. (3A) γtcPNA-155-TAMRA uptake in the U2932 lymphoma cell line: Representative flow cytometry traces of TAMRA fluorescence in U2932 cells after treatment with 500 nM dose of γtcPNA-155-TAMRA for 48 hours. The data was analyzed by FlowJo software. (3B) Normalized miR-155 gene expression levels in U2932 after treatment with phosphate buffer saline (PBS) as a control and with 500 nM dose of Scr-γtcPNA-155, PNA-155, γPNA-155 and γtcPNA-155 for 48 hours compared to average control U6 (n=3), data represented as mean±standard error mean (SEM), Statistical analysis was performed using Unpaired two-tailed t-test. Further, statistical analysis was performed relative to Scr-γtcPNA-155 treated cells. ***p<0.001. (3C) Gene expression level of miR-155 downstream genes, tumor suppressor proteins (FOXO3A, CUX1, SOCS1, CSF1R, JARID2, SHIP1, PICALM, PDCD4, BACH1, WEE1, TP53TG3, CASP3, PTEN) in U2932 cell line after treatment with PBS as a control and with after treatment with 500 nM of Scr-γtcPNA-155, PNA-155, γPNA-155 and γtcPNA-155 for 48 hours. Data is normalized with average GAPDH control (n=3), and represented as mean±SEM, *p<0.05. Unpaired two-tailed t-test was used for statistical analysis and analysis was performed relative to Scr-γtcPNA-155 treated cells. (3D) Gene expression level of miR-155 downstream genes MCL1 in U2932 cell line after treatment with PBS as a control and 500 nM of Scr-γtcPNA-155, PNA-155, γPNA-155 and γtcPNA-155 for 48 hours. Data is normalized with average GAPDH control (n=3), and represented as mean±SEM, *p<0.05, **p<0.01 and ***p<0.001. Statistical analysis was performed using Unpaired two-tailed t-test. Analysis was performed relative to Scr-γtcPNA-155 treated cells. (3E) Representative western blot of Mcl-1 and its quantification (n=3 technical replicate) and (3F) Caspase-3 protein and its quantification (n=3 technical replicate) in U2932 cell line after treatment with 500 nM of Scr-γtcPNA-155, PNA-155 and γtcPNA-155 for 48 hours. Data is represented as mean±SEM and unpaired two-tailed t-test was used for statistical analysis. *p<0.05 **p<0.01. Numbers above western blot panels represent relative quantification of the respective bands using ImageJ software and normalized relative to loading control and treatment control.
Gene expression by RT-PCR: 400,000 U2932 cells were seeded in a 12 well plate. The cells were treated with 500 nM PNA-155, gamma tcPNA-155, gamma PNA-155, Scr gamma tcPNA-155 or were PBS treated (control) for 48 hrs in an incubator (37° C. and 5% CO2). The cells were centrifuged at 2000 rpm for 4 mins at 4° C. The total RNA from the cell pellet was extracted using RNeasy® mini kit (Qiagen). The cDNA was prepared in thermal cycler (Bio-rad) using reverse transcriptase, RNase inhibitor, dNTPs, nuclease-free water and RT primers specific for miR-155 and U6. Random primers were used for the preparation of cDNA for downstream targets. The cDNA was amplified using miR-155 assay, U6 assay, or specific downstream target assays in CFX Connect™ Real-time PCR detection system (Bio-rad). The samples were subjected to polymerase activation (95° C. for 10 mins), followed by 40 cycles of denaturation (95° C. for 15 sec) and annealing (60° C. for 1 min). The 2^−ΔΔCT method was used to calculate the fold change in target genes.

γPNA-155: single-stranded full-length serine gamma PNA binding miR-155 by Watson-Crick pairing, SEQ ID NO: 1 (ACCCCTATCACGATTAGCATTAA; all peptide nucleic acid (PNA); serine gamma-PNA, two arginine residues (X1 RR) at each terminus, further chemistry not fully specified)
decrease in miR-155 gene expression in tumors (miR-155 [1]): 80% | tumor growth / tumor volume [2]: reduced the tumor growth | miR-155 inhibition (miR-155 [3]): ~83% | de-repression of miR-155 target tumor suppressor genes (miR-155 downstream genes): significant de-repression | reduction in MCL1 gene expression levels (miR-155 downstream genes): 19%
